Test results from the supplement of paper PMC8967900.

Legend:
Assay in all cases: selective drug sensitivity score (sDSS, relative to normal bone marrow) (sDSS (score)); higher = more potent and effective on the cell line relative to normal bone marrow cells
Conditions in all cases: 72 h
[1] = tested on: REH
[2] = tested on: TMD5
[3] = tested on: PF-382
[4] = tested on: HPB-ALL
[5] = tested on: COG-LL-319h
[6] = tested on: MOLT-14
[7] = tested on: NALM-6
[8] = tested on: ALL-SIL
[9] = tested on: MHH-CALL-3
[10] = tested on: CCRF-HSB2
[11] = tested on: RPMI-8402
[12] = tested on: MOLT-16
[13] = tested on: NALM-16
[14] = tested on: COG-LL-355h
[15] = tested on: MN-60
[16] = tested on: 697
[17] = tested on: CCRF-CEM
[18] = tested on: KASUMI-2
[19] = tested on: P30-OHKUBO
[20] = tested on: MHH-CALL-2
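Further: ALL cell lines in 384-well plates, five doses spanning 10,000-fold, each plate scaled between vehicle and 100 µmol/L benzalkonium chloride controls, sDSS an adapted area-under-curve metric.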

Row | SMILES | selective drug sensitivity score [1] | selective drug sensitivity score [2] | selective drug sensitivity score [3] | selective drug sensitivity score [4] | selective drug sensitivity score [5] | selective drug sensitivity score [6] | selective drug sensitivity score [7] | selective drug sensitivity score [8] | selective drug sensitivity score [9] | selective drug sensitivity score [10] | selective drug sensitivity score [11] | selective drug sensitivity score [12] | selective drug sensitivity score [13] | selective drug sensitivity score [14] | selective drug sensitivity score [15] | selective drug sensitivity score [16] | selective drug sensitivity score [17] | selective drug sensitivity score [18] | selective drug sensitivity score [19] | selective drug sensitivity score [20]
1 | CCc1c2c(nc3ccc(O)cc13)-c1cc3c(c(=O)n1C2)COC(=O)[C@]3(O)CC [SN-38] (top concentration 10000 nM) | 27.2 | 18.3 | 24.8 | 11.2 | 26.7 | 28 | 22.1 | 27.3 | 16.2 | 28 | 25.4 | 28.2 | 13.4 | 14.7 | 7.28 | 22.7 | 27.6 | 18.8 | 24.6 | 25.2
2 | CCN(CC)C(=S)SSC(=S)N(CC)CC [Disulfiram(+CuCl2)] (top concentration 50000 nM) | -0.32 | -2.12 | -0.02 | 15.8 | 18.7 | -2.02 | -2.12 | -2.12 | 1.78 | -2.12 | -2.12 | 13.9 | -2.12 | 1.48 | -2.12 | -1.02 | -2.12 | 5.18 | 0.78 | 8.58
3 | CC(C)Oc1ccc(C(=O)N[C@H](CNC(=O)CN(C)C)Cc2ccc(-c3cn4cccc([C@H](C)O)c4n3)cc2)cc1Cl (top concentration 10000 nM) | 12.1 | 5.18 | 6.68 | 8.18 | 14.3 | 17.4 | 7.68 | 12.8 | -9.32 | 11 | 9.28 | 20.1 | 1.68 | -2.62 | -1.62 | 19.9 | 16.2 | 6.38 | 12.8 | 8.58
4 | CNC(=O)CN1CCC(Oc2cc3c(Nc4cccc(Cl)c4F)ncnc3cc2OC)CC1 [Sapitinib] (top concentration 1000 nM) | 0 | 0 | 0 | 0 | 0 | 0 | 0 | 0 | 0.1 | 3.3 | 0 | 0 | 0 | 0 | 0 | 0 | 0 | 0 | 0 | 0
5 | COC(=O)c1ccc2c(c1)NC(=O)/C2=C(\Nc1ccc(N(C)C(=O)CN2CCN(C)CC2)cc1)c1ccccc1 [Nintedanib] (top concentration 10000 nM) | -5.16 | 0.84 | 5.04 | 0.64 | 8.74 | 1.64 | -2.36 | 14.3 | -0.26 | 28.6 | 1.14 | -2.26 | -1.76 | -0.16 | -6.36 | 0.84 | -1.46 | -6.36 | -1.46 | 1.04
6 | CCOC(=O)C1=CCCC[C@H]1S(=O)(=O)Nc1ccc(F)cc1Cl [Resatorvid] (top concentration 10000 nM) | 0 | 0 | 0 | 0 | 0 | 0 | 0 | 0 | 0 | 0 | 0 | 0 | 0 | 0 | 0 | 0 | 0 | 0 | 0 | 0
7 | CC[C@@H](C(=O)[C@@H](C)[C@@H](O)[C@H](C)[C@@H]1O[C@@H]([C@@H](CC)C(=O)O)CC[C@@H]1C)[C@H]1O[C@]2(C=C[C@@H](O)[C@]3(CC[C@@](C)([C@H]4CC[C@](O)(CC)[C@H](C)O4)O3)O2)[C@H](C)C[C@@H]1C [Salinomycin] (top concentration 50000 nM) | -13 | 1.1 | -5.4 | -1.2 | -0.8 | 6.3 | -4.9 | 0.6 | -3.3 | 0.9 | 10.1 | 10.7 | 0.3 | -3.1 | 0.3 | -0.9 | 2 | -23.2 | -7.8 | 10.8
8 | Cc1sc2c(c1C)C(c1ccc(Cl)cc1)=N[C@@H](CC(=O)Nc1ccc(O)cc1)c1nnc(C)n1-2 [Birabresib] (top concentration 10000 nM) | -3.18 | -9.18 | 3.42 | -0.08 | 13.5 | 1.72 | 3.72 | 0.02 | 14 | -0.98 | 3.72 | 7.92 | 1.52 | 2.42 | 6.72 | 10.6 | 1.22 | -9.68 | 7.22 | 7.02
9 | Nc1ncn([C@H]2C[C@H](O)[C@@H](CO)O2)c(=O)n1 [Decitabine] (top concentration 10000 nM) | 3.94 | -5.56 | -1.16 | -0.66 | 10.7 | 0.44 | -3.06 | -3.06 | 2.34 | 1.14 | 1.24 | 5.94 | -2.96 | -0.96 | -5.86 | 17.5 | 4.44 | -2.26 | 4.64 | 1.04
